Patent US9439904B2, “Pyrimidine compounds and their use as gamma secretase modulators” (Acturum Life Science AB, priority 2013, dated 2016)

Key:
Aβ42 [1] = assay: HEK assay: Aβ42 secreted to cell medium, Meso Scale Discovery electrochemiluminescence; assay type: cell-based; conditions: Homo sapiens, HEK293; HEK cell line stably expressing APPswe; 4-6 hours incubation with test compound; read-out: pIC50 Aβ42 HEK assay (converted)
Description: Compounds were diluted in 100% DMSO and stored at […] prior to use. Human Embryonic Kidney (HEK) cell line stably expressing APP with the Swedish mutation (APPswe) was cultured using Dulbecco's Modified Eagles medium (DMEM) supplied with […] glucose, Na-pyruvate and GlutaMAX, 10% Foetal bovine serum, 100 U/mL penicillin-streptomycin (PEST), 1× non-essential amino acids (NEAA), […] Hepes, 100 μg/mL Zeocine. Cells at about 80% confluence were washed with PBS, detached from culture flasks using 1× Trypsin/EDTA diluted in PBS, re-suspended in cell media and plated in 384-well poly-d-lysine coated cell culture plates at about 10000-15000 cells/well, in 25 μL cell media. Optionally, cryo-preserved cells (frozen and stored at −140° C. in 90% cell media and 10% DMSO) were thawed, washed and plated as above. Next the cells were incubated for 15-24 h at 37° C. and 5% CO2, after which cell medium was changed. Fresh medium containing test compound diluted ×200 from prepared compound plate was added to the cells before further incubation for 4-6 hours at 37° C. and 5% CO2. After incubation with test compound the amount of Aβ peptides, including Aβ42, Aβ40, Aβ39, Aβ38 and Aβ37, secreted to cell medium was analyzed using the electrochemiluminescence assay technology from Meso Scale Discovery Technology, in combination with specific antibodies raised against the different Aβ peptides. Potential cytotoxic effects of the compounds were assayed by measuring the ATP content (ViaLight) from cell lysate.

Aβ42 [2] = assay: PCN assay: Aβ42 secreted by primary cortical neuronal cells, ELISA; assay type: cell-based; conditions: primary cortical neuronal cells from 16-day mouse embryos; 16-20 hours incubation with test compound; read-out: pIC50 Aβ42 PCN assay (converted)
Description: Compounds were diluted in 100% DMSO and stored at […] prior to use. Primary cortical neuronal cells (PCN) were isolated from 16-day mouse embryos and cultured in Ham's F12 media containing 10% Foetal bovine serum, 10 mM Hepes, 2 mM L-glutamine and 100 U/mL Penicillin-Streptomycin. 150000-250000 cells/well, in 200 μL cell media were seeded onto 96-well poly-D-Lysine coated plates. After incubation at 37° C., 5% CO2 for five days, the media was exchanged for fresh medium containing test compound diluted ×100, before further incubation for 16-20 hours at 37° C. and 5% CO2. After incubation with test compound the amount of […] secreted to cell medium was analyzed using the solid phase sandwich Enzyme-Linked-Immuno-Sorbent Assay (ELISA)-kit from Invitrogen for detection of mouse βAmyloid 1-42. Potential cytotoxic effects of the compounds were assayed by measuring the ATP content (Via Light) from cell lysate.

Structure (SMILES) | IC50 (Aβ42 [1]) [µM] | IC50 (Aβ42 [2]) [µM]
COc1cc(Nc2nc(COCC(F)(F)F)cc(C(C)(C)O)n2)ccc1-c1cnnc(C)c1 [Example 47, 2-(2-(3-Methoxy-4-(6-methylpyridazin-4-yl)phenylamino)-6-((2,2,2-trifluoroethoxy)-methyl)pyrimidin-4-yl)propan-2-ol] | 0.0501 | 0.1
COc1cc(Nc2nc(COCC(F)(F)F)cc(C(O)C(C)C)n2)ccc1-n1cnc(C)c1 (centres unmarked) [Example 14, 1-(2-(3-Methoxy-4-(4-methyl-1H-imidazol-1-yl)phenylamino)-6-((2,2,2-trifluoroethoxy)methyl)pyrimidin-4-yl)-2-methylpropan-1-ol] |  | 0.0398
COc1cc(Nc2nc(COCC(F)(F)F)cc(C(C)(C)O)n2)ccc1-c1cnc(C)o1 [Example 46, 2-(2-(3-Methoxy-4-(2-methyloxazol-5-yl)phenylamino)-6-((2,2,2-trifluoroethoxy)methyl)-pyrimidin-4-yl)propan-2-ol] | 0.0398 | 0.0794
COc1cc(Nc2nc(COCC(F)(F)F)c(C)c(C(C)(C)O)n2)ccc1-n1cnc(C)c1 [Example 5, 2-(2-(3-Methoxy-4-(4-methyl-1H-imidazol-1-yl)phenylamino)-5-methyl-6-((2,2,2-trifluoroethoxy)methyl)pyrimidin-4-yl)propan-2-ol] | 0.02 | 0.02
COc1cc(Nc2nc(COCC(F)(F)F)cc(C(O)c3ccccc3)n2)ccc1-n1cnc(C)c1 (centres unmarked) [Example 49, (2-(3-Methoxy-4-(4-methyl-1H-imidazol-1-yl)phenylamino)-6-((2,2,2-trifluoroethoxy)-methyl)pyrimidin-4-yl)(phenyl)methanol] | 0.0794 | 0.0794
CNc1cc(COCC(F)(F)F)nc(Nc2ccc(-c3cnnc(C)c3)c(OC)c2)n1 [Example 24, N^2-(3-Methoxy-4-(6-methylpyridazin-4-yl)phenyl)-N^4-methyl-6-((2,2,2-trifluoroethoxy)-methyl)pyrimidine-2,4-diamine] | 0.1 | 0.0794
COc1cc(Nc2nc(C(C)O)cc(C(C)OCC(F)(F)F)n2)ccc1-n1cnc(C)c1 (centres unmarked) [Example 7, 1-(2-(3-Methoxy-4-(4-methyl-1H-imidazol-1-yl)phenylamino)-6-(1-(2,2,2-trifluoroethoxy)-ethyl)pyrimidin-4-yl)ethanol] | 0.0316 | 0.0316
COc1cc(Nc2nc(COCCC(F)(F)F)cc(C(C)(C)O)n2)ccc1-n1cnc(C)c1 [Example 18, 2-(2-(3-Methoxy-4-(4-methyl-1H-imidazol-1-yl)phenylamino)-6-((3,3,3-trifluoropropoxy)-methyl)pyrimidin-4-yl)propan-2-ol] | 0.0631 | 0.1
COc1cc(Nc2nc(CNCc3ccccc3)cc(COCC(F)(F)F)n2)ccc1-c1cnnc(C)c1 [Example 39, 4-((Benzylamino)methyl)-N-(3-methoxy-4-(6-methylpyridazin-4-yl)phenyl)-6-((2,2,2-trifluoroethoxy)methyl)pyrimidin-2-amine] | 0.126 | 0.2
COc1cc(Nc2nc(COCC(F)(F)F)cc(C(C)(O)C(C)C)n2)ccc1-c1cnc(C)o1 (centres unmarked) [Example 48, 2-(2-(3-Methoxy-4-(2-methyloxazol-5-yl)phenylamino)-6-((2,2,2-trifluoroethoxy)methyl)-pyrimidin-4-yl)-3-methylbutan-2-ol] | 0.0251 | 0.0501
COCc1cc(C(C)(C)O)nc(Nc2ccc(-n3cnc(C)c3)c(OC)c2)n1 [Example 27, 2-(2-(3-Methoxy-4-(4-methyl-1H-imidazol-1-yl)phenylamino)-6-(methoxymethyl)pyrimidin-4-yl)propan-2-ol] | 0.158 | 0.126
CCOC1(c2cc(C(C)(C)O)nc(Nc3ccc(-n4cnc(C)c4)c(OC)c3)n2)CC1(F)F (centres unmarked) [Example 52, 2-(6-(1-Ethoxy-2,2-difluorocyclopropyl)-2-(3-methoxy-4-(4-methyl-1H-imidazol-1-yl)phenylamino)pyrimidin-4-yl)propan-2-ol] | 0.2 | 0.2
CNc1cc(COCC(F)(F)F)nc(Nc2ccc(-n3cnc(C)c3)cc2)n1 [Example 2, N^4-Methyl-N^2-(4-(4-methyl-1H-imidazol-1-yl)phenyl)-6-((2,2,2-trifluoroethoxy)methyl)-pyrimidine-2,4-diamine] | 0.0316 | 0.0631
COc1cc(Nc2nc(COC(CF)CF)cc(C(C)(C)O)n2)ccc1-n1cnc(C)c1 [Example 50, 2-(6-((1,3-Difluoropropan-2-yloxy)methyl)-2-(3-methoxy-4-(4-methyl-1H-imidazol-1-yl)phenylamino)pyrimidin-4-yl)propan-2-ol] | 0.0794 | 0.0631
COc1cc(Nc2nc(COCC3CC3)cc(C(C)(C)O)n2)ccc1-n1cnc(C)c1 [Example 29, 2-(6-((Cyclopropylmethoxy)methyl)-2-(3-methoxy-4-(4-methyl-1H-imidazol-1-yl)phenylamino)pyrimidin-4-yl)propan-2-ol] | 0.0398 | 0.0631
COc1cc(Nc2nc(COCC3CC(F)(F)C3)cc(C(C)(C)O)n2)ccc1-c1cnnc(C)c1 [Example 19, 2-(6-(((3,3-Difluorocyclobutyl)methoxy)methyl)-2-(3-methoxy-4-(6-methylpyridazin-4-yl)phenylamino)pyrimidin-4-yl)propan-2-ol] | 0.2 | 

Continued, in another order:

IC50 (Aβ42 [1]) [µM] | Structure (SMILES) | IC50 (Aβ42 [2]) [µM]
0.0398 | COc1cc(Nc2nc(COCC(F)(F)F)cc(C(O)C3CC3)n2)ccc1-n1cnc(C)c1 (centres unmarked) [Example 28, Cyclopropyl(2-(3-methoxy-4-(4-methyl-1H-imidazol-1-yl)phenylamino)-6-((2,2,2-trifluoroethoxy)methyl)pyrimidin-4-yl)methanol] | 0.1
0.158 | COc1cc(Nc2nc(COCC(F)(F)F)cc(CN(C)C)n2)ccc1-n1cnc(C)c1 [Example 41, 4-((Dimethylamino)methyl)-N-(3-methoxy-4-(4-methyl-1H-imidazol-1-yl)phenyl)-6-((2,2,2-trifluoroethoxy)methyl)pyrimidin-2-amine] | 
0.0398 | COc1cc(Nc2nc(COCC(F)(F)F)cc(NCC3CC3)n2)ccc1-n1cnc(C)c1 [Example 33, N^4-(Cyclopropylmethyl)-N^2-(3-methoxy-4-(4-methyl-1H-imidazol-1-yl)phenyl)-6-((2,2,2-trifluoroethoxy)methyl)pyrimidine-2,4-diamine] | 0.0501
0.0501 | COc1cc(Nc2nc(COCC(F)(F)F)cc(NC3COC3)n2)ccc1-n1cnc(C)c1 [Example 35, N^2-(3-Methoxy-4-(4-methyl-1H-imidazol-1-yl)phenyl)-N^4-(oxetan-3-yl)-6-((2,2,2-trifluoroethoxy)methyl)pyrimidine-2,4-diamine] | 0.0251
0.0316 | COc1cc(Nc2nc(COCC(F)(F)F)cc(NC(C)C)n2)ccc1-n1cnc(C)c1 [Example 8, N^4-Isopropyl-N^2-(3-methoxy-4-(4-methyl-1H-imidazol-1-yl)phenyl)-6-((2,2,2-trifluoroethoxy)methyl)pyrimidine-2,4-diamine] | 0.02
0.251 | COc1cn(-c2ccc(Nc3nc(COCC(F)(F)F)cc(C(C)O)n3)cc2OC)cn1 (centres unmarked) [Example 31, 1-(2-(3-Methoxy-4-(4-methoxy-1H-imidazol-1-yl)phenylamino)-6-((2,2,2-trifluoroethoxy)-methyl)pyrimidin-4-yl)ethanol] | 0.316
0.02 | COc1cc(Nc2nc(COCC(F)(F)F)cc(C(O)CC3CC3)n2)ccc1-n1cnc(C)c1 (centres unmarked) [Example 13, 2-Cyclopropyl-1-(2-(3-methoxy-4-(4-methyl-1H-imidazol-1-yl)phenylamino)-6-((2,2,2-trifluoroethoxy)methyl)pyrimidin-4-yl)ethanol] | 0.0501
0.0251 | CNc1cc(COCC(F)(F)F)nc(Nc2ccc(-n3cnc(C)c3)c(OC)c2)n1 [Example 9, N^2-(3-Methoxy-4-(4-methyl-1H-imidazol-1-yl)phenyl)-N4-methyl-6-((2,2,2-trifluoroethoxy)methyl)pyrimidine-2,4-diamine] | 0.0316
0.0501 | COc1cc(Nc2nc(COCC3CC3)cc(COCC(F)(F)F)n2)ccc1-n1cnc(C)c1 [Example 16, 4-((Cyclopropylmethoxy)methyl)-N-(3-methoxy-4-(4-methyl-1H-imidazol-1-yl)phenyl)-6-((2,2,2-trifluoroethoxy)methyl)pyrimidin-2-amine] | 0.0794
